The source of these data is article PMC3210919 (Biochemistry, 2011).

Like-named read-outs stand apart in the source and are kept apart here.

For data set [1], the target named is T1, K1119Q RePC mutant (Rhizobium etli, UniProt Q2K340, K1119Q).
The target in data set [2] is T2, wild-type RePC (Rhizobium etli, UniProt Q2K340). The data set is classed as biochemical. The following applies: pH 7.5, 25° C.
In data set [3] the target is T3, T882A RePC mutant (Rhizobium etli, UniProt Q2K340, T882A).
The target of data set [4] is T2, wild-type RePC. The data set is classed as biochemical. The conditions noted are these: MgADP varied; pH 7.5, 25° C, 0.25 mM acetyl-CoA.
The target of data set [5] is T2, wild-type RePC. The data set is described as follows: Coupling study: initial rates of oxaloacetate formation at varying pyruvate. The following applies: pyruvate varied; for kcat, oxaloacetate formation: 15 mM HCO3^−.
Data set [6] concerns wild-type RePC (pyruvate carboxylase from R. etli). Nature of the data set: Pyruvate carboxylation activity, malate dehydrogenase coupled assay. The data set is classed as biochemical, Rhizobium etli.
The target of data set [7] is T2, wild-type RePC. The data set is described as follows: Coupling study: initial rates of Pi release at varying pyruvate. In kind it is biochemical. The conditions noted are these: for Ka pyruvate, stimulation of Pi release: 15 mM HCO3^−.
Data set [8] deals with T2, wild-type RePC. The data set is described as follows: HCO3^−-dependent ATPase activity in the absence of pyruvate. In kind it is biochemical. The conditions noted are these: pH 7.5, 25° C.
The target in data set [9] is T3, T882A RePC mutant. This is another data set of the same source.
For data set [10], the target named is T1, K1119Q RePC mutant. Nature of the data set: HCO3^−-dependent ATPase reaction, K1119Q mutant. In kind it is biochemical.
The target in data set [11] is T2, wild-type RePC. In kind it is biochemical. The following applies: saturating substrates and activators, 1 mM oxamate; pH 7.5, 25° C.
Another data set concerns NC(=O)OP(=O)(O)O. The data set is described as follows: purified protein, by the assay type. The conditions noted are these: other: T882A, no free biotin; pH 7.5; 25.0 °C.
The mark [12] stands for this setting: labelled substrate varied, others saturating, pH 7.5, 25° C, 0.25 mM acetyl-CoA.

As for `NC(=O)OP(=O)(O)O` [Carbamoyl phosphate], the “% wild-type kcat/Km” value at K1119Q RePC mutant [1] ((+) 10 mM free biotin) turned out to be 45%; at K1119Q RePC mutant [1] (no free biotin), 17%; on T882A RePC mutant [3] ((+) 10 mM free biotin), 920%; at T882A RePC mutant [3] (no free biotin) it was 750%. Further, at wild-type RePC [2] (phosphoryl donor varied, 0.25 mM acetyl-CoA), the “% kcat of pyruvate carboxylation” value was found to be 0.6%. For the same molecule, the kcat (usually the number of substrate molecules converted per active site and unit of time at saturation) on wild-type RePC [2] (wild-type, no free biotin, […] MgADP, 0.25 mM acetyl-CoA (Table 7)) was determined as 0.04 ± 0.0017 s⁻¹.
Consider `Nc1ncnc2c1ncn2[C@@H]1O[C@H](COP(=O)(O)OP(=O)(O)O)[C@@H](O)[C@H]1O` [MgADP], for which the “% kcat of pyruvate carboxylation” value on wild-type RePC [4] is reported as 0.2%.
As to `CC(=O)C(=O)O` [pyruvate], the “Km pyruvate (oxaloacetate formation) without acetyl-CoA, % of (+) acetyl-CoA” value on wild-type RePC [5] came to 2%. Further, the “kcat oxaloacetate formation without acetyl-CoA, % of (+) acetyl-CoA” value on wild-type RePC [5] worked out at 0.5%. For the same molecule, the “kcat/Km (oxaloacetate formation) without acetyl-CoA, % of (+) acetyl-CoA” value on wild-type RePC [5] was determined as 24%. The entries for the “kcat, oxaloacetate formation” value at wild-type RePC [5] ((+) 0.25 mM acetyl-CoA) and on wild-type RePC [5] ((−) acetyl-CoA) were 5.17 ± 0.13 s⁻¹ and 0.0253 ± 0.0005 s⁻¹, respectively. Also, the Km (commonly the concentration of substrate that gives half-maximal velocity) in data set [6] (setting [12]) is 150 ± 10 µM; in data set [6] (read-out: Km pyruvate, pyruvate varied, 0.7 mM free Mg^2+), 3100 ± 200 µM; in [6] (read-out: Km pyruvate, pyruvate varied, 3.0 mM free Mg^2+), 2650 ± 40 µM; in [6] (read-out: Km pyruvate, pyruvate varied, 5.0 mM free Mg^2+), 150 ± 10 µM; in [6] (read-out: Km pyruvate, pyruvate varied, […] free Mg^2+), 3000 ± 400 µM. In data set [6] (setting [12]), the kcat was 440 ± 8 ^d min^−1. For the same molecule, the Vmax (as a rule, the top rate of the reaction or transport when substrate is in excess) in data set [6] (pyruvate varied, 0.7 mM free Mg^2+) came out at 0.69 ± 0.02 µmol/mg/min; in data set [6] (pyruvate varied, 3.0 mM free Mg^2+), 3.18 ± 0.08 µmol/mg/min; in data set [6] (pyruvate varied, 5.0 mM free Mg^2+), 3.98 ± 0.04 µmol/mg/min; in data set [6] (pyruvate varied, […] free Mg^2+), 1.41 ± 0.01 µmol/mg/min. Also, the “Ka pyruvate, stimulation of Pi release” value came to 0.16 ± 0.01 mM on wild-type RePC [7] ((+) 0.25 mM acetyl-CoA) and 0.048 ± 0.008 mM on wild-type RePC [7] ((−) acetyl-CoA). Further, the “fold increase of the rates of Pi release from the BC domain” value at wild-type RePC [7] (low concentrations of pyruvate, absence of acetyl-CoA) was 120-175 fold. In addition, the “fold stimulation of the rate of Pi release from the BC domain” value on wild-type RePC [7] (lowest concentrations of pyruvate, presence of acetyl-CoA) was 300-500 fold. In addition, the “Ka pyruvate (Pi release) without acetyl-CoA, % of (+) acetyl-CoA” value on wild-type RePC [7] (pyruvate varied) turned out to be 30%. Moreover, the “kcat Pi release without acetyl-CoA, % of (+) acetyl-CoA” value at wild-type RePC [7] (pyruvate varied) came to 5.8%. The “kcat/Ka (Pi release) without acetyl-CoA, % of (+) acetyl-CoA” value at wild-type RePC [7] (pyruvate varied) turned out to be 19%. The “limiting value of the ratio oxaloacetate formation / Pi release” value on wild-type RePC [7] (saturating pyruvate and acetyl-CoA) amounted to 1.08. The “fold increase in the rate of Pi release” value on wild-type RePC [7] (sub-saturating concentrations of pyruvate) is on record as about 300 fold.
In the case of `Nc1ncnc2c1ncn2[C@@H]1O[C@H](COP(=O)(O)OP(=O)(O)OP(=O)(O)O)[C@@H](O)[C@H]1O` [MgATP], the Km in [6] (setting [12]) is 145 ± 9 µM. Moreover, the kcat in [6] (setting [12]) is 396 ± 10 ^d min^−1; on wild-type RePC [8] (wild-type, no free biotin, 15 mM HCO3^−, 7.5 mM MgCl2, 0.25 mM acetyl-CoA), 0.043 ± 0.0015 s⁻¹; on T882A RePC mutant [9] (no free biotin), 0.233 ± 0.033 s⁻¹; on K1119Q RePC mutant [10] (no free biotin) it was 0.00137 ± 1.7e-05 s⁻¹. Also, at wild-type RePC [8] (MgATP varied, 0.25 mM acetyl-CoA), the “% kcat of pyruvate carboxylation” value is 0.6%. For the same molecule, the “% wild-type kcat/Km” value amounted to 260% on T882A RePC mutant [9] ((+) 10 mM free biotin), 225% on T882A RePC mutant [9] (no free biotin), 40% on K1119Q RePC mutant [10] ((+) 10 mM free biotin) and 0.06% on K1119Q RePC mutant [10] (no free biotin).
Turning to `O=C(O)CC(=O)C(=O)O` [oxaloacetate], on wild-type RePC [11], the “% kcat of pyruvate carboxylation” value is reported as 2.0%.
Take “T882A RePC mutant (Rhizobium etli CFN 42; T882A)”: in the data set on NC(=O)OP(=O)(O)O, the Km worked out at 3400 ± 500 µM, the kcat came to 0.4 s⁻¹ and the kcat/Km (commonly the second-order rate constant that governs catalysis at low substrate concentration) worked out at 117 M⁻¹ s⁻¹.
